The test system of experiment [1] is CDK6. Description: Western blot, CDK6 in MCF-7 cells. The format is cell-based. As to conditions: MCF-7, 48 h. On the procedure:
(§1) Following a 48 h treatment, cellular proteins were extracted using RIPA cell lysis buffer containing protease and phosphatase inhibitor cocktail. The protein concentration was assessed by using a BCA assay. Subsequently, equal amounts of these proteins were loaded onto an SDS-PAGE gel and transferred onto a PVDF membrane. The protein-loaded membrane was then blocked using a commercial blocking solution (Beyotime, China) and sequentially incubated with primary and secondary antibodies. Protein bands were visualized using an ECL chemiluminescence kit and quantified using ImageJ software.
For orientation: Immunoblotting shows a protein as a band on a membrane.

Experiment [2] has as its system L02 (normal human liver cell). Description: Cytotoxicity against non-tumor cells, L02. The note with it: 96 h, 4-day treatment. The format is cell-based. The text has this:
To further establish HF4’s advantage, we employed a web-based in silico cytotoxicity prediction tool (https://www.way2drug.com/clc-pred/index.php), encompassing the prediction against 391 tumor and 47 normal human cell lines,[47] to predict the cytotoxicity of HF4 against nontumor cell lines. […] The absence of nontumor cell lines among the top-ranked ones indicates a limited impact on normal cell line. When threshold of ≥0.15 was applied, among 50 predictions, only a single normal cell line (HEK293) was present in the list, with a predicted probability value below 0.2. We further reinforced the safety profile of HF4 by conducting experimental safety assessments on two normal cell lines. […] In summary, we conducted both computational safety predictions and experimental evaluations on normal cell lines to strengthen the assurance of HF4’s safety profile.
Cytotoxicity of HF4 against non-tumor cells
Figure S6. Cytotoxicity of HF4 against non-tumor cells during a 4-day treatment.
(1 picture or pasted object on this page, not shown here)

Experiment [3] has as its system MDA-MB-436 cells. Description: Cell viability (MTT), MDA-MB-436. The format is cell-based. The note with it: Homo sapiens, MDA-MB-436, 96 h; 4-day treatment, BRCA mutant. How it is done:
MDA-MB-231, MDA-MB-436, and MCF-7 cells were seeded into 96-well plates with the number of 5 × 10^3 in each cell and allowed to incubate for 24 h. Subsequently, various concentrations of the test compounds (ranging from 100 to 0.78 μM with twice gradient dilution) were introduced. After 4 days of incubation, MTT solution was applied, and the cells were incubated for an additional 4 h. Following the removal of the supernatant, the violet crystals were dissolved in 200 μL of DMSO, and the absorbance was measured at 570 nm.

The target of experiment [4] is BRD4 (Homo sapiens, UniProt O60885). Description: BRD TR-FRET assay, BRD4. The experiment is classed as binding. How it is done: (§2) The assay was performed by TR-FRET technology using a BRD and its corresponding ligand (BET). The TR-FRET signal from the assay is correlated with the amount of ligand binding to the bromodomain. All of the binding reactions were conducted at room temperature. The 20 μL reaction mixture in Assay Buffer contains either bromodomains, BET Ligand, and the indicated amount of inhibitor. For the negative control (blank), 5 μL of the assay buffer was added instead of the BET ligand. The reaction mixture was incubated for 120 min. After the incubation with the ligand, the TR-FRET signal was measured using a Tecan Infinite M1000 plate reader.
In general terms: In TR-FRET formats the signal depends on donor and acceptor labels being close together.

Experiment [5] relates to BRD4. Description: Western blot, BRD4 expression in MCF-7 cells. The format is cell-based. As to conditions: MCF-7, 48 h treatment. How it is done: as §1
The target of experiment [6] is BRD2 (Homo sapiens, UniProt P25440). Description: BRD TR-FRET assay, BRD2. The format is binding. How it is done:
as §2

The subject of experiment [7] is PARP1. Description: Western blot, PARP1 expression in MCF-7 cells. The experiment is classed as cell-based. As to conditions: MCF-7, 48 h treatment. How it is done: as §1
The test system of experiment [8] is Rad51. Description: Western blot, Rad51 in MCF-7 cells. The note with it: MCF-7, 48 h. The experiment is classed as cell-based. How it is done:
as §1

Experiment [9] addresses BRD4 BD1 (Homo sapiens, UniProt O60885). Description: BRD TR-FRET assay, BRD4 BD1. The experiment is classed as binding. On the procedure:
as §2

Experiment [10] concerns MCF-7 cells. Description: Colony formation assay. The experiment is classed as cell-based. As to conditions: seven-day exposure. On the procedure:
The cells were placed in a 6-well plate at a density of approximately 500 cells per well and allowed to incubate for 24 h. Subsequently, the cells were exposed to the specified concentrations of test compounds and a control vehicle for a duration of 7 days. Following this treatment period, the cells were fixed using a 4% formaldehyde solution, stained with crystal violet, and then imaged.

The test system of experiment [11] is Caspase 3. Description: Western blot, Caspase 3 in MCF-7 cells. The experiment is classed as cell-based. As to conditions: MCF-7, 48 h, dose-dependent. How it is done: as §1

Each structure is given as a SMILES string. Like-named read-outs stand apart in the source and are kept apart here.

Sequence of BRD2 (P25440 whole entry): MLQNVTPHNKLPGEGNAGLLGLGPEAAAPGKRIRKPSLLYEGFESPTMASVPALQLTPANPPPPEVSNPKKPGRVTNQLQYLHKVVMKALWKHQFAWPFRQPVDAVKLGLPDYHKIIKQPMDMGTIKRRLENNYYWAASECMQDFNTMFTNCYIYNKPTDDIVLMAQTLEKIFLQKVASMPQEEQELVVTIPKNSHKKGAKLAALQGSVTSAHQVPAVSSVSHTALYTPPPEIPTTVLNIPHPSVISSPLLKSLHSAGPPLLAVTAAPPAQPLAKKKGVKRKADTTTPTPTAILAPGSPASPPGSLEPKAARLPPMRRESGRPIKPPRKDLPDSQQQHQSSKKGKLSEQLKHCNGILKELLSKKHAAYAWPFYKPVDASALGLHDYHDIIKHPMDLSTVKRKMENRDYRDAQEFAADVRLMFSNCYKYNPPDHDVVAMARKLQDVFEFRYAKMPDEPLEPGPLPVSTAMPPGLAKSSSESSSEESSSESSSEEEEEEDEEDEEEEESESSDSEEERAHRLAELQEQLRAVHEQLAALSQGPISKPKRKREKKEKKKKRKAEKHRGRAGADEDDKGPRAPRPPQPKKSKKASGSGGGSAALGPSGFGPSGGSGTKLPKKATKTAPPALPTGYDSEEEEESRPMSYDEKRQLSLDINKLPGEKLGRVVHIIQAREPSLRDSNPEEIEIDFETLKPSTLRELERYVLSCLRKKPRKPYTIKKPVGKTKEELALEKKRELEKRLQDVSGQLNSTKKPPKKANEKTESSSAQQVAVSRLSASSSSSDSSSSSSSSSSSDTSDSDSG

Take `CCc1cc2cc(NS(=O)(=O)c3ccc(F)c(C)c3)ccc2[nH]c1=O` [HF4, N-(3-ethyl-2-oxo-1,2-dihydroquinolin-6-yl)-4-fluoro-3-methylbenzenesulfonamide]: the CDK6 expression entry in experiment [1] is recorded as “dose-dependently lowered”. In addition, the IC50 in experiment [2] was 26.3 ± 6.2 µM; in [3] it was 4.9 µM; in [4], 1.21 ± 0.324 µM; in experiment [4] (value of the text), 1.2 µM; in [6], 6.83 ± 2.2 µM; in experiment [9], 0.204 ± 0.068 µM. Moreover, the “ligand efficiency index against BRD4” value in [4] (pIC50 divided by HAC, HAC = 25) was 0.24. In [4] (vs PFI-1), the “reduction in capacity to inhibit BRD4 relative to PFI-1” value was “around 5 fold”. For the same compound, in [5], the BRD4 expression result is listed as “an increase but to a much lesser extent than JQ1”. Further, the PARP1 expression result in [7] is on record as “limited effect”. Further, the “expression of Rad51” value in experiment [8] is “significantly reduced”. For the same compound, the “selectivity BRD4 BD1 over BRD4 BD2” value in [9] (IC50 BD1 vs BD2) is on record as “four times more potent”. Besides, the colony formation result in experiment [10] (2 μM) is reported as “marked decline in colony formation”; in experiment [10] (8 μM) it was “nearly no visible colonies”. In [11], the “Caspase 3 expression” value is “significantly downregulated”.

Usually IC50 stands for the concentration that gives 50% inhibition. High values mean weaker potency in that assay, low ones greater potency in that assay.

The values are drawn from paper PMC11480993, “Combining Data-Driven and Structure-Based Approaches in Designing Dual PARP1-BRD4 Inhibitors for Breast Cancer Treatment” (Journal of Chemical Information and Modeling, 2024).
